What was measured:
[1] = O/W emulsions and W/O emulsions; 0.5% by weight; cited from earlier work
[2] = system: Candida albicans; assay: Minimum inhibitory concentration (MIC), agar dilution method, DIN 58940; format: cell-based
Experimental: (§1) The MIC values were determined in accordance with DIN 58940 by the agar dilution method.

[3] = system: Aspergillus niger; assay: as above; format: cell-based
Experimental: as §1

[4] = system: Staphyloccus aureus; assay: as above; format: cell-based
Experimental: as §1

[5] = system: Pseudomonas aeruginosa; assay: as above; format: cell-based
Experimental: as §1

[6] = cited from earlier work

SMILES	antimicrobial activity [1]	MIC in % [2] [%]	MIC in % [3] [%]	MIC in % [4] [%]	MIC in % [5] [%]	solubility in oil [6]	solubility in water [6]
Cc1cc(CC(C)CC(C)(C)C)n(O)c(=O)c1.NCCO (centres unmarked) [Octopirox ®, 2-aminoethanol salt of 1-hydroxy-4-methyl-6-(2,4,4-trimethylpentyl)-2(1H)-pyridone]	inadequate	0.004	0.004	0.002	0.016	no more than moderate solubility	low solubility
OCCOc1ccccc1 [PE, 2-phenoxyethanol]	–	0.5	0.25	0.25	0.5	–	–
